Laboratory results: patent US20250230193A1, “CYCLIC COMPOUND HAVING SELECTIVE KRAS INHIBITORY EFFECT ON HRAS AND NRAS” (CHUGAI SEIYAKU KABUSHIKI KAISHA, priority 2022, published 2025)
*1 amine or outer side, *2 acyl side, *3 side chain or, on linkers, in order; H or OH if unused. Where a SMILES comes first, the peptide text is derived from it. Bridges are numbered along the chain shown (N, C = ends). [ ]: non-standard residue; d: D form. The star is where a group is joined. hPhe(3-Cl-4-CF3) = N[C@@H](CCc1ccc(C(F)(F)F)c(Cl)c1)C(=O)O; X41 = Cc1ccc(C[C@@H](C(=O)[*:2])N(CCC(F)(F)F)[*:1])cc1; NPrPhe(4-CF3) = CCCN[C@@H](Cc1ccc(C(F)(F)F)cc1)C(=O)O; NMeGly(cPent) = CN[C@H](C(=O)O)C1CCCC1; NMeD = CN[C@@H](CC(=O)O)C(=O)O; NMeL = CN[C@@H](CC(C)C)C(=O)O; Morpholide = C1CN(*)CCO1; Ac5c = NC1(C(=O)O)CCCC1; Aze = O=C(O)[C@@H]1CCN1; Ac4c = NC1(C(=O)O)CCC1; Sar = CNCC(=O)O

What was measured:
[1] = molecular target: GDP-bound NRAS wild-type protein (Homo sapiens, UniProt P01111); assay: Binding to NRAS by surface plasmon resonance (SPR), Single Cycle Kinetics; settings: for NRAS/KRAS (ratio of KD value with respect to NRAS to KD value with respect to KRAS): GDP-bound NRAS wild-type vs GDP-bound KRAS wild-type
Sequence of GDP-bound NRAS wild-type protein (P01111 whole entry): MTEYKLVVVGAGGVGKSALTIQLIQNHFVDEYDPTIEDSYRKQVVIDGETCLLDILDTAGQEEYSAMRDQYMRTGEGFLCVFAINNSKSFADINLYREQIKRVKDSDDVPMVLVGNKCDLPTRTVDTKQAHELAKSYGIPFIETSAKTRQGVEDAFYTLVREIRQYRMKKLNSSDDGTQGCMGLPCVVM

[2] = molecular target: GDP-bound HRAS wild-type protein (Homo sapiens, UniProt P01112); assay: Binding to HRAS by surface plasmon resonance (SPR), Single Cycle Kinetics; settings: for HRAS/KRAS (ratio of KD value with respect to HRAS to KD value with respect to KRAS): GDP-bound HRAS wild-type vs GDP-bound KRAS wild-type
Sequence of GDP-bound HRAS wild-type protein (P01112 whole entry): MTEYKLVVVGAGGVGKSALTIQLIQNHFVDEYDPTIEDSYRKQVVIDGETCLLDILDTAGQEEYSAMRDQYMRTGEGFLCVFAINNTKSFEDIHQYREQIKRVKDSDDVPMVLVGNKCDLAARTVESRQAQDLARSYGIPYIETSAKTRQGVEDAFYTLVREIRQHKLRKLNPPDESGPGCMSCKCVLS

Question: With CCC[C@H]1C(=O)N[C@@H]([C@@H](C)CC)C(=O)N(C)CC(=O)N(C)[C@H]2C/C=C\CCN(C2=O)[C@@H](Cc2ccc(C)cc2)C(=O)N(C)CC(=O)N[C@@H](CCc2ccc(CC)c(Cl)c2)C(=O)N2C[C@H](OCC)C[C@H]2C(=O)NC2(CC(C)(C)C2)C(=O)N(C)[C@@H](C(CC)CC)C(=O)N(C)[C@H](C(=O)N(C)C)CC(=O)N1C [PP2779] as the compound, how does the “NRAS/KRAS (ratio of KD value with respect to GDP-bound NRAS wild-type protein to KD value with respect to KRAS)” value ([1]; class symbols) read?
Answer: The value was “A (a compound having 10 or more and less than 20 is denoted as A)”.

Question: What about the “HRAS/KRAS (ratio of KD value with respect to GDP-bound HRAS wild-type protein to KD value with respect to KRAS)” value ([2]; class symbols) of the same compound?
Answer: The value was “A (a compound having 10 or more and less than 20 is denoted as A)”.

Question: How did the “NRAS/KRAS (ratio of KD value with respect to GDP-bound NRAS wild-type protein to KD value with respect to KRAS)” value ([1]; SPR) turn out when CCCN1C(=O)[C@@H]2CCN2C(=O)CN(C)C(=O)[C@H]([C@@H](C)CC)NC(=O)[C@H](CC(C)C)N(C)C(=O)C[C@@H](C(=O)N(C)C)N(C)C(=O)[C@H](C2CCCC2)N(C)C(=O)C2(CCC2)NC(=O)[C@@H]2CCCN2C(=O)[C@H](CCc2ccc(C(F)(F)F)c(Cl)c2)NC(=O)CN(C)C(=O)[C@@H]1Cc1ccc(C(F)(F)F)cc1 [PP0441] ([NMeL]I[Sar][Aze][NPrPhe(4-CF3)][Sar][hPhe(3-Cl-4-CF3)]P[Ac4c][NMeGly(cPent)][NMeD]-NMe2; lactam N-11) was run?
Answer: Its value is “C (A compound having a KD ratio of 0.1 or more and less than 3 is denoted as C)”.

Question: What about the “HRAS/KRAS (ratio of KD value with respect to GDP-bound HRAS wild-type protein to KD value with respect to KRAS)” value ([2]; SPR) of the same compound?
Answer: Its value is “C (A compound having a KD ratio of 0.1 or more and less than 3 is denoted as C)”.

Question: With CCCN1C(=O)CN(C)C(=O)CNC(=O)[C@H]([C@@H](C)CC)NC(=O)[C@H](CC(C)C)N(C)C(=O)C[C@@H](C(=O)N2CCOCC2)NC(=O)[C@H](C2CCCC2)N(C)C(=O)C2(CCC2)NC(=O)[C@@H]2CCCN2C(=O)[C@H](CCc2ccc(C(F)(F)F)c(Cl)c2)NC(=O)CN(C)C(=O)[C@@H]1Cc1ccc(C(F)(F)F)cc1 [PP0326] ([NMeL]IG[Sar][NPrPhe(4-CF3)][Sar][hPhe(3-Cl-4-CF3)]P[Ac4c][NMeGly(cPent)]D-Morpholide; lactam N-11) as the compound, how does the “NRAS/KRAS (ratio of KD for GDP-bound NRAS wild-type to KD for KRAS)” value ([1]; SPR) read?
Answer: Its value is “B (a compound having 3 or more and less than 10 is denoted as B)”.

Question: What about the “HRAS/KRAS (ratio of KD for GDP-bound HRAS wild-type to KD for KRAS)” value ([2]; SPR) of the same compound?
Answer: The value was “B (a compound having 3 or more and less than 10 is denoted as B)”.

Question: How did the “NRAS/KRAS (ratio of KD value with respect to GDP-bound NRAS wild-type protein to KD value with respect to KRAS)” value ([1]; class symbols) turn out when CCCC[C@H]1C(=O)N[C@@H]([C@@H](C)CC)C(=O)N(C)CC(=O)N(C)[C@H]2C/C=C\CCN(C2=O)[C@@H](Cc2ccc(C)cc2)C(=O)N(C)CC(=O)N[C@@H](CCc2cc(F)c(C(F)(F)F)c(F)c2)C(=O)N2C[C@H](OCC)C[C@H]2C(=O)NC2(CC(C)(C)C2)C(=O)N(C)[C@@H](C2CCCC2)C(=O)N(C)[C@H](C(=O)N(C)C)CC(=O)N1C [PP2800] was run?
Answer: The value was “A (a compound having 10 or more and less than 20 is denoted as A)”.

Question: What about the “HRAS/KRAS (ratio of KD value with respect to GDP-bound HRAS wild-type protein to KD value with respect to KRAS)” value ([2]; class symbols) of the same compound?
Answer: Its value is “A (a compound having 10 or more and less than 20 is denoted as A)”.

Question: Which results are given for CC[C@H](C)[C@@H]1NC(=O)[C@H](CC(C)C)N(C)C(=O)C[C@@H](C(=O)N2CCOCC2)N(C)C(=O)[C@H](C2CCCC2)N(C)C(=O)C2(CCCC2)NC(=O)[C@@H]2CCCN2C(=O)[C@H](CCc2ccc(C(F)(F)F)c(Cl)c2)NC(=O)CN(C)C(=O)[C@H](Cc2ccc(C)cc2)N(CCC(F)(F)F)C(=O)CN(C)C(=O)CN(C)C1=O [PP0103] ([NMeL]I[Sar][Sar][X41][Sar][hPhe(3-Cl-4-CF3)]P[Ac5c][NMeGly(cPent)][NMeD]-Morpholide; lactam N-11)?
Answer: NRAS/KRAS (ratio of KD for GDP-bound NRAS wild-type to KD for KRAS) ([1]; SPR): B (a compound having 3 or more and less than 10 is denoted as B); HRAS/KRAS (ratio of KD for GDP-bound HRAS wild-type to KD for KRAS) ([2]; SPR): C (A compound having a KD ratio of 0.1 or more and less than 3 is denoted as C)

Question: How did the “NRAS/KRAS (ratio of KD value with respect to NRAS to KD value with respect to KRAS)” value ([1]; SPR) turn out when CCO[C@@H]1C[C@H]2C(=O)NC3(CC(C)(C)C3)C(=O)N(C)[C@@H](C(CC)CC)C(=O)N(C)[C@H](C(=O)N3CCCC3)CC(=O)N(C)[C@@H](COC)C(=O)N[C@@H]([C@@H](C)CC)C(=O)N(C)CC(=O)N(C)[C@H]3C/C=C\CCN(C3=O)[C@@H](Cc3ccc(C)cc3)C(=O)N(C)CC(=O)N[C@@H](CCc3cc(F)c(C(F)(F)F)c(F)c3)C(=O)N2C1 [PP2139] was run?
Answer: Its value is “AA (a compound having 20 or more is denoted as AA)”.

Question: And the “HRAS/KRAS (ratio of KD value with respect to HRAS to KD value with respect to KRAS)” value ([2]; SPR)?
Answer: Its value is “A (a compound having 10 or more and less than 20 is denoted as A)”.

Question: How did the “NRAS/KRAS (ratio of KD value with respect to NRAS to KD value with respect to KRAS)” value ([1]; KD ratio, SPR) turn out when CCO[C@@H]1C[C@H]2C(=O)NC3(CCC3)C(=O)N(C)[C@@H](C3CCCC3)C(=O)N(C)[C@H](C(=O)N(C)C)CC(=O)N(C)[C@@H](CC)C(=O)N[C@@H]([C@@H](C)CC)C(=O)N3CC[C@H]3C(=O)N(C)[C@H]3CC(C)=C(C)CN(C3=O)[C@@H](Cc3ccc(C(F)(F)F)cc3)C(=O)N(C)CC(=O)N[C@@H](CCc3cc(F)c(C(F)(F)F)c(F)c3)C(=O)N2C1 [PP1049] was run?
Answer: The value was “C (A compound having a KD ratio of 0.1 or more and less than 3 is denoted as C)”.

Question: And the “HRAS/KRAS (ratio of KD value with respect to HRAS to KD value with respect to KRAS)” value ([2]; KD ratio, SPR)?
Answer: Its value is “C (A compound having a KD ratio of 0.1 or more and less than 3 is denoted as C)”.

Question: What does the source list for CCO[C@@H]1C[C@H]2C(=O)NC3(CCCC3)C(=O)N(C)[C@@H](C3CCCC3)C(=O)N(C)[C@H](C(=O)N(C)C)CC(=O)N(C)[C@@H](C)C(=O)N[C@@H]([C@@H](C)CC)C(=O)N(C)CC(=O)N(C)[C@H]3CCCCN(C3=O)[C@@H](Cc3ccc(C(F)(F)F)cc3)C(=O)N(C)CC(=O)N[C@@H](CCc3cc(F)c(C(F)(F)F)c(F)c3)C(=O)N2C1 [PP0586]?
Answer: NRAS/KRAS (ratio of KD value with respect to GDP-bound NRAS wild-type protein to KD value with respect to KRAS) ([1]; SPR): C (A compound having a KD ratio of 0.1 or more and less than 3 is denoted as C); HRAS/KRAS (ratio of KD value with respect to GDP-bound HRAS wild-type protein to KD value with respect to KRAS) ([2]; SPR): B (a compound having 3 or more and less than 10 is denoted as B)

Question: Which results are given for CCCN1C(=O)CN(C)C(=O)[C@@H]2CCN2C(=O)[C@H]([C@@H](C)CC)NC(=O)[C@H](CC(C)C)N(C)C(=O)C[C@@H](C(=O)N(C)C)NC(=O)[C@H](C2CCCC2)N(C)C(=O)C2(CCC2)NC(=O)[C@@H]2CCCN2C(=O)[C@H](CCc2ccc(C(F)(F)F)c(Cl)c2)NC(=O)CN(C)C(=O)[C@@H]1Cc1ccc(C(F)(F)F)cc1 [PP0374] ([NMeL]I[Aze][Sar][NPrPhe(4-CF3)][Sar][hPhe(3-Cl-4-CF3)]P[Ac4c][NMeGly(cPent)]D-NMe2; lactam N-11)?
Answer: NRAS/KRAS (ratio of KD for GDP-bound NRAS wild-type to KD for KRAS) ([1]; SPR): B (a compound having 3 or more and less than 10 is denoted as B); HRAS/KRAS (ratio of KD for GDP-bound HRAS wild-type to KD for KRAS) ([2]; SPR): B (a compound having 3 or more and less than 10 is denoted as B)

Question: How did the “NRAS/KRAS (ratio of KD value with respect to GDP-bound NRAS wild-type protein to KD value with respect to KRAS)” value ([1]; SPR) turn out when CCO[C@@H]1C[C@H]2C(=O)NC3(CCC3)C(=O)N(C)[C@@H](C3CCCC3)C(=O)N(C)[C@H](C(=O)N(C)C)CC(=O)N(C)[C@@H](CC3CCCCC3)C(=O)N[C@@H]([C@@H](C)CC)C(=O)N(C)CC(=O)N(C)[C@H]3CCCCCN(C3=O)[C@@H](Cc3ccc(C(F)(F)F)cc3)C(=O)N(C)CC(=O)N[C@@H](CCc3cc(F)c(C(F)(F)F)c(F)c3)C(=O)N2C1 [PP0671] was run?
Answer: Its value is “B (a compound having 3 or more and less than 10 is denoted as B)”.

Question: What about the “HRAS/KRAS (ratio of KD value with respect to GDP-bound HRAS wild-type protein to KD value with respect to KRAS)” value ([2]; SPR) of the same compound?
Answer: The value was “B (a compound having 3 or more and less than 10 is denoted as B)”.
